This is an account of results in patent US12509431B2, “1,4-dihydroquinazolinone compounds and uses thereof” (Edgewise Therapeutics, Inc., priority 2022, dated 2025).

SMILES strings stand for the structures. Where two headings read alike, the source gives them in different places. Bounds are passed on as bounds.

Test [1] deals with T1, myosin+removed RLC (Sus scrofa, UniProt P79293).
T1 construct: Full-length myosin was resuspended to 1 mg/mL
Description: NADH-coupled actin-activated ATPase assay, myosin + removed RLC. It is filed as biochemical. The settings on record: 2 μM myosin, rabbit skeletal actin, 25° C., 1% DMSO. The procedure: (§1) Full-length myosin was resuspended to 1 mg/mL in a buffer containing 500 mM KCl, 10 mM KPi, 15 mM CDTA, pH 8.5. Triton-X was then added to a final concentration of […], and the suspension was agitated for 15 minutes at room temperature to selectively remove the regulatory light chain (RLC). RLC-removed myosin was then precipitated and collected and resuspended in a buffer containing 400 mM KCl, 50 mM Mops, pH 7, 2 mM MgCl2, and 1 mM DTT. Recombinantly expressed and purified human ventricle RLC was added in a 3-fold molar excess to myosin and incubated on ice for 2 hours to allow for reassociation of the RLC onto myosin. Triton (0.1%) was added to the reaction to prevent any non-specific binding events. RLC-exchanged myosin was then precipitated and collected and resuspended in a buffer containing 12 mM PIPES, pH 6.8, […], 2 mM MgCl2, and 1 mM DTT. RLC removal and exchange were confirmed by SDS-PAGE and proteins were visualized using coomassie stain.
(§2) Myosin was resuspended in buffer A (f.c.=12 mM PIPES, pH 6.8, 30 mM KCl, 2 mM MgCl2, 1 mM DTT, 0.1 mg/mL BSA, 0.01% (v/v) Antifoam 204, and 0.6% (v/v) PK/LDH (final reaction contains ≥3.6 U/mL PK and >5.4 U/mL LDH)) at final concentrations of 1 μM for myosin+native RLC and 2 μM for myosin+removed RLC and myosin+human ventricle RLC. Buffer A was then mixed with an equal volume of buffer B (f.c.=12 mM PIPES, pH 6.8, 30 mM KCl, 2 mM MgCl2, 1 mM DTT, 0.1 mg/mL BSA, 0.01% (v/v) Antifoam 204, 0.5 mM NADH, 1.5 mM phosphoenolpyruvate, 1 mM ATP, and 0.3 mg/mL filamentous rabbit skeletal actin) in a 384-well plate. Dose-dependent compound effects were assessed by adding the compounds at varying concentrations between 100 μM and 2 nM, all with a constant final DMSO concentration of 1% v/v. The reactions were run at a constant temperature of 25° C. in the plate reader to monitor the change in A340 over time. Measurements were taken every 90 sec for 75 min to generate raw time-domain absorbance data, which was processed to normalized reaction rates. Normalized enzymatic rates were calculated, using rates observed in 1% (v/v) in DMSO as 100% and 0 slope as 0%. Compound-specific activity curves were generated by plotting the normalized rates versus compound concentration and fitting the data to a 4-parameter logistic model. In addition to the fit parameters, the IC25% was calculated, relative to the 100% normalized value.

In test [2] the target is T2, myosin+human ventricle RLC (Sus scrofa, UniProt P79293).
T2 construct: Full-length myosin was resuspended to 1 mg/mL
Description: NADH-coupled actin-activated ATPase assay, myosin + human ventricle RLC. It is filed as biochemical. The following applies: 2 μM myosin, rabbit skeletal actin, 25° C., 1% DMSO. The procedure:
as §1, §2

Test [3] concerns the target T3, myosin+native RLC (Sus scrofa, UniProt P79293).
T3 construct: Full-length myosin was resuspended to 1 mg/mL
Description: NADH-coupled actin-activated ATPase assay, myosin + native RLC. It counts as biochemical. The following applies: 1 μM myosin, rabbit skeletal actin, 25° C., 1% DMSO. The procedure:
as §1, §2

Test [4] relates to isoflurane-anesthetized SD rats. Description: In vivo echocardiography of systolic cardiac performance (FS, SWT, HR, LV volumes) after a single oral dose. The following applies: Rattus norvegicus, single dose 10 mg/kg PO, ~2 hrs post-dosing, vs. vehicle. The procedure: Experiments were performed to evaluate the in vivo ability of the compounds of the disclosure to modulate systolic cardiac performance. Non-invasively echocardiography was used to assess cardiac indicators in isoflurane-anesthetized SD rats. A set of conscious rats were treated with either vehicle control (0 mg/kg PO; n=78) or a single dose of an test compound (10 mg/kg PO, n=2 to 6/compound) via oral gavage. Cardiac function/geometry were recorded at two separate time-points/days: once prior to dosing (i.e., at baseline, day −2) and at ˜2 hrs post-dosing (day 0).
In these experiments, heart rate (HR), echocardiography-derived indices of left-ventricular systolic performance, as well as dimensions/volumes were measured using a high-frequency transducer and parastemnal long-axis transthoracic views (Vevo3100, VisualSonic). LV fractional shortening (FS), an index of systolic function, was defined as the end-diastole normalized change in internal dimensions divided by the […] (LVid) of the left ventricle between end-systole (LVids) and end-diastole (LVidd) (i.e., FS=100·[LVidd−LVids]/LVidd). LV volumes were derived using the Teichholz formula (LVV=7·LVid^3/[2.4+LVid]). In addition, a systolic wall-thickening index (SWT) was also evaluated. SWT is defined as the relative ratio (end-diastole normalized) of left-ventricular (anterior and posterior) wall-thickness change during systole; i.e., SWT=I{[(anterior LV wall thickness in systole−anterior LV wall thickness in diastole)][…][(posterior LV wall thickness in systole−posterior LV wall thickness in diastole)]}/{2*diastolic thickness}. In all cases, blood samples were taken (via either tail-vein micro-sampling or cardiac-puncture) at the time of each echocardiographic examination in order to establish pharmacokinetic (PK)/pharmacodynamics (PD) relationships.

In test [5] the test system is Porcine Atria myofibrils. Description: Myofibril ATPase assay (PK/LDH NADH-coupled), atria myofibrils. It is filed as biochemical. Summed up: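 Values are EC25% (and, for inhibitors, EC50%) from 4-parameter logistic fits of activity normalized to vehicle wells. Rates came from linear regression of 340 nm kinetic reads (every 1.5-2 min, 75 min) of NADH-coupled ATP turnover by porcine atria myofibrils.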

Setting [6] is: EDV (LV volume, Teichholz formula), read-out: EDV % vs. VEH.
The mark [7] stands for this setting: LV fractional shortening, read-out: FS % vs. VEH.
The mark [8] stands for this setting: heart rate, read-out: HR % vs. VEH.
Where [9] appears, read: systolic wall-thickening index, read-out: SWT % vs. VEH.

T1 sequence (P79293 whole entry): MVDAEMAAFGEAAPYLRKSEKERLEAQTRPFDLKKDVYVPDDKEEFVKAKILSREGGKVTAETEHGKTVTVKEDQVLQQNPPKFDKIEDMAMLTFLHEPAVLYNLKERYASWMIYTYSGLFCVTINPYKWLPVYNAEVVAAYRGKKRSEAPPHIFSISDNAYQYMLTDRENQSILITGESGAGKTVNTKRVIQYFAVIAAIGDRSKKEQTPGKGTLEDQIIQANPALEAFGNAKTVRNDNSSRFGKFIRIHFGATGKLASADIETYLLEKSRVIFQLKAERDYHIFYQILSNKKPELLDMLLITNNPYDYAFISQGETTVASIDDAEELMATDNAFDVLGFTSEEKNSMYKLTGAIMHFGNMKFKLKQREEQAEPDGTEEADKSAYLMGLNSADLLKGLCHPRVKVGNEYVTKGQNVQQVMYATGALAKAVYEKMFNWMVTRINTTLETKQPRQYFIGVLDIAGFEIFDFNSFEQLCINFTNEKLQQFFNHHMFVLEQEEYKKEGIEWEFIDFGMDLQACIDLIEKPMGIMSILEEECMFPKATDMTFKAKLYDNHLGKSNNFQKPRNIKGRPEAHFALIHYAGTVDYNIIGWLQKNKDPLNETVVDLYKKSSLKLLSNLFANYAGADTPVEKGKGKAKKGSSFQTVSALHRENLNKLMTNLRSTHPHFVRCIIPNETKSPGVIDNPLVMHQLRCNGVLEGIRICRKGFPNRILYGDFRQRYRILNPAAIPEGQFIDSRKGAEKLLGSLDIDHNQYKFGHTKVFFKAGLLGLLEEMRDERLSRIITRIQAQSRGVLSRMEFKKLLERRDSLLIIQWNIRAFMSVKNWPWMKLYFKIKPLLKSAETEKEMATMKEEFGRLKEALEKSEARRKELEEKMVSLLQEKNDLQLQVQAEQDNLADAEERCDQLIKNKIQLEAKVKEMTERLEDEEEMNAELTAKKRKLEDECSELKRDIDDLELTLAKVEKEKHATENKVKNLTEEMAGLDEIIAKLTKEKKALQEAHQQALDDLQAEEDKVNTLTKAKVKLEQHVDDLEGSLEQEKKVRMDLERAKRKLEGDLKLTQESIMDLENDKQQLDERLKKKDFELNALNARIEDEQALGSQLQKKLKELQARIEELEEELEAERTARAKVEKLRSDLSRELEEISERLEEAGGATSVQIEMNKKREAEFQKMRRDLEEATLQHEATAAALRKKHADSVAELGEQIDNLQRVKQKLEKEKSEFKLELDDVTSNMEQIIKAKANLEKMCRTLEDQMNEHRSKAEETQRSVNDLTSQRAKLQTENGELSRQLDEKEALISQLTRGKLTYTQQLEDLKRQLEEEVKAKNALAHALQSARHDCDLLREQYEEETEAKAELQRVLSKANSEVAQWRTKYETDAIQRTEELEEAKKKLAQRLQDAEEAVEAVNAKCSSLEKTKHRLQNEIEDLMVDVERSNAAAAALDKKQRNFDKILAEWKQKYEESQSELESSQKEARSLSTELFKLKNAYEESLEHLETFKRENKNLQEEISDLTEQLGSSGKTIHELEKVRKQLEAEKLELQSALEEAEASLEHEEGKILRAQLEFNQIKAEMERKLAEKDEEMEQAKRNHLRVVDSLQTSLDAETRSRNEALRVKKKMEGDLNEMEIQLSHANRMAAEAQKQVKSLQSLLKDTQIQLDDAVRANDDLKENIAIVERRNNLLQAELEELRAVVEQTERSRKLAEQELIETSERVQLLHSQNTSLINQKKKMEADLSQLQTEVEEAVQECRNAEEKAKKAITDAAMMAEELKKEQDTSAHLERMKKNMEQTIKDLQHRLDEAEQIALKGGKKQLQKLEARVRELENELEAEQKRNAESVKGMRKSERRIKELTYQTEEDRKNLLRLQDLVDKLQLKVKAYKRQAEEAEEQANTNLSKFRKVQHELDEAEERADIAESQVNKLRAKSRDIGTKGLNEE
T3 sequence (P79293 whole entry): as above
T2 sequence (P79293 whole entry): as above

Consider `N#Cc1cnc2c(c1)OCC2NC(=O)CN1Cc2c(ccc(F)c2F)NC1=O` (single isomer, unassigned) [Compound B65], for which, in test [1], the “Potency, Full-length myosin + RLC removed” value is more than 100.0 µM. Also, the “Potency, Full-length myosin + exchanged human ventricle RLC” value in test [2] amounted to 0.69 µM. Further, in test [3], the “Potency, Full-length myosin + native porcine ventricle RLC” value amounted to 0.55 µM. For the same compound, the change in vivo at 10 mg/kg in test [4] (setting [6]) is 22%; in test [4] (setting [7]), -61%; in test [4] (setting [8]), 22%; in test [4] (setting [9]) it was -53%. In test [5] (Table 8), the “Porcine Atria IC25” value amounted to 0.06 µM.
Take `CC(NC(=O)CN1Cc2cc(F)ccc2NC1=O)c1ccc(C#N)cc1F` (single isomer, unassigned) [Compound B206]: the “Potency, Full-length myosin + RLC removed” value in test [1] was more than 100.0 µM. Further, the “Potency, Full-length myosin + exchanged human ventricle RLC” value in test [2] came to 0.68 µM. Further, the “Potency, Full-length myosin + native porcine ventricle RLC” value in test [3] came out at 0.97 µM. Further, the change in vivo at 10 mg/kg was 29% in test [4] (setting [6]), -67% in test [4] (setting [7]), 7% in test [4] (setting [8]) and -57% in test [4] (setting [9]). Besides, the “Porcine Atria IC25” value in test [5] (Table 8) came out at 0.03 µM.
For the compound `C[C@@H](NC(=O)CN1Cc2c(ccc(F)c2F)NC1=O)c1ncc(C#N)cc1F` [Compound B141, (R)—N-(1-(5-cyano-3-fluoropyridin-2-yl)ethyl)-2-(5,6-difluoro-2-oxo-1,4-dihydroquinazolin-3(2H)-yl)acetamide], in test [1], the “Potency, Full-length myosin + RLC removed” value is more than 100.0 µM. Further, the “Potency, Full-length myosin + exchanged human ventricle RLC” value in test [2] stood at 13.90 µM. In test [3], the “Potency, Full-length myosin + native porcine ventricle RLC” value came to 15.48 µM. Also, the change in vivo at 10 mg/kg in test [4] (setting [6]) was -3%; in test [4] (setting [7]), -15%; in test [4] (setting [8]) it was 13%; in test [4] (setting [9]) it was -19%. Besides, the “Porcine Atria IC25” value in test [5] (Table 8) came out at 0.13 µM.
`O=C(CN1Cc2cc(F)ccc2NC1=O)N[C@@H]1COc2cc(F)cc(F)c21` [Compound B145]: the “Potency, Full-length myosin + RLC removed” value in test [1] was more than 100.0 µM. Moreover, the “Potency, Full-length myosin + exchanged human ventricle RLC” value in test [2] was determined as 0.67 µM. Also, the “Potency, Full-length myosin + native porcine ventricle RLC” value in test [3] was 1.19 µM. Further, the change in vivo at 10 mg/kg was 11% in test [4] (setting [6]), -42% in test [4] (setting [7]), 7% in test [4] (setting [8]) and -39% in test [4] (setting [9]). The “Porcine Atria IC25” value in test [5] (Table 8) stood at 0.02 µM.
For the compound `O=C(CN1Cc2c(ccc(F)c2F)NC1=O)N[C@@H]1COc2cc(F)cc(F)c21` [Compound B147], the “Potency, Full-length myosin + RLC removed” value in test [1] was more than 100.0 µM. In addition, the “Potency, Full-length myosin + exchanged human ventricle RLC” value in test [2] is 0.48 µM. Moreover, in test [3], the “Potency, Full-length myosin + native porcine ventricle RLC” value came out at 0.63 µM. For the same compound, the change in vivo at 10 mg/kg was 10% in test [4] (setting [6]), -35% in test [4] (setting [7]), 10% in test [4] (setting [8]) and -37% in test [4] (setting [9]). The “Porcine Atria IC25” value in test [5] (Table 8) came out at 0.05 µM.
Regarding `C[C@H](NC(=O)CN1Cc2c(ccc(F)c2F)NC1=O)c1ccc(C#N)cc1F` [Compound B189], in test [1], the “Potency, Full-length myosin + RLC removed” value was more than 100.0 µM. The “Potency, Full-length myosin + exchanged human ventricle RLC” value in test [2] stood at 0.33 µM. Also, the “Potency, Full-length myosin + native porcine ventricle RLC” value in test [3] turned out to be 0.39 µM. The change in vivo at 10 mg/kg in test [4] (setting [6]) was 19%; in test [4] (setting [7]) it was -13%; in test [4] (setting [8]), -5%; in test [4] (setting [9]), -29%. Moreover, the “Porcine Atria IC25” value in test [5] (Table 8) was 0.03 µM.
Turning to `C[C@H](NC(=O)CN1Cc2c(ccc(F)c2F)NC1=O)c1ncc(F)cc1F` [Compound B191], the “Potency, Full-length myosin + RLC removed” value in test [1] is more than 100.0 µM. Also, the “Potency, Full-length myosin + exchanged human ventricle RLC” value in test [2] stood at 0.44 µM. Besides, in test [3], the “Potency, Full-length myosin + native porcine ventricle RLC” value was 0.45 µM. The change in vivo at 10 mg/kg is 9% in test [4] (setting [6]), -59% in test [4] (setting [7]), 17% in test [4] (setting [8]) and -59% in test [4] (setting [9]). In addition, the “Porcine Atria IC25” value in test [5] (Table 8) was 0.04 µM.
Turning to `C[C@H](NC(=O)CN1Cc2cc(F)ccc2NC1=O)c1ncc(C#N)cc1F` [Compound B199], in test [1], the “Potency, Full-length myosin + RLC removed” value was more than 100.0 µM. Also, the “Potency, Full-length myosin + exchanged human ventricle RLC” value in test [2] was 0.629 µM. The “Potency, Full-length myosin + native porcine ventricle RLC” value in test [3] was determined as 0.56 µM. Moreover, the change in vivo at 10 mg/kg was 11% in test [4] (setting [6]), -54% in test [4] (setting [7]), 22% in test [4] (setting [8]) and -55% in test [4] (setting [9]). Moreover, the “Porcine Atria IC25” value in test [5] (Table 8) stood at 0.09 µM.
Take `C[C@H](NC(=O)CN1Cc2cc(F)ccc2NC1=O)c1ccc(F)cc1F` [Compound B247, N-[(1S)-1-(2,4-Difluorophenyl)ethyl]-2-(6-fluoro-2-oxo-1,4-dihydroquinazolin-3-yl)acetamide]: the “Potency, Full-length myosin + RLC removed” value in test [1] was more than 100.0 µM. In addition, the “Potency, Full-length myosin + exchanged human ventricle RLC” value in test [2] was found to be 1.02 µM. The “Potency, Full-length myosin + native porcine ventricle RLC” value in test [3] turned out to be 0.97 µM. Moreover, the change in vivo at 10 mg/kg in test [4] (setting [6]) was 7%; in test [4] (setting [7]) it was -31%; in test [4] (setting [8]), 7%; in test [4] (setting [9]), -35%. The “Porcine Atria IC25” value in test [5] (Table 8) was 0.06 µM.
In the case of `O=C(CN1C(=O)Nc2cccnc2C12CC2)N[C@@H]1COc2cc(F)cc(F)c21` [Compound N33], the “Potency, Full-length myosin + RLC removed” value in test [1] was more than 100.0 µM. The “Potency, Full-length myosin + exchanged human ventricle RLC” value in test [2] stood at 0.40 µM. The “Potency, Full-length myosin + native porcine ventricle RLC” value in test [3] is 0.40 µM. Further, the change in vivo at 10 mg/kg is 2% in test [4] (setting [6]), -10% in test [4] (setting [7]), 6% in test [4] (setting [8]) and -5% in test [4] (setting [9]). Further, the “Porcine Atria IC25” value in test [5] (Table 7) is 0.08 µM.
